Source: US12472226B2, “Cell-permeable peptide” (priority 2019, dated 2025)
Non-standard residues stand in square brackets, D forms with d. No end group written: not given here. *: point of attachment. FITC = O=C1OC2(c3ccc(O)cc3Oc3cc(O)ccc32)c2ccc(NC(=S)*)cc21; Ahx = NCCCCCC(=O)O

Assays:
[1] = test system: Gin-1 cells; assay: Test of inducing cell-death in vitro (Calcein-AM/PI dead cell rate); type: cell-based, human; conditions: 50 μg/mL, 9 days
From the text: (§1) Human fibrosarcoma-derived HT-1080 cells (HT-1080 cells, JCRB cell bank) were used as cancer cells in the test for monitoring changes in mitochondrial membrane potential. HT-1080 cells, human osteosarcoma cell line Hos cells (Hos cells, JCRB cell bank), human histiocytic lymphoma/macrophage U937 cells (U937 cells, JCRB cell bank), human myeloid leukemia HL-60 cells (HL-60 cells, JCRB cell bank), acute monocytic leukemia THP-1 cells (THP-1 cells, JCRB cell bank), human alveolar basal epithelial adenocarcinoma cell A549 cells (A549 cells, Cell Resource Center for Biomedical Research, Institute of Development, Aging and Cancer, Tohoku University), human pancreatic carcinoma cells (MIA Paca 2 cells, Cell Resource Center for Biomedical Research, Institute of Development, Aging and Cancer, Tohoku University) and well differentiated human liver carcinoma-derived cell line HuH7 cells (HuH7 cells, Cell Resource Center for Biomedical Research, Institute of Development, Aging and Cancer, Tohoku University) were used as cancer cells in an in vitro cell-death induction test of cancer cells and a nuclear transport test of Example 2. Normal human gingival fibroblast cells Gin-1 (Gin-1 cells, DS Pharma Biomedical) were used as a control. The above-described cells were each inoculated into a 96-well culture plate (Falcon) at 5,000 cells/[…] and subjected to the following tests.
(§2) The peptide of SEQ ID NO: 1 labeled with FITC (Example 2) was used for the test of inducing cell-death in vitro in cancer cells. It was prepared the test example to which 100 μL of Example 2 and further 10% FBS were added and cultured for 9 days under conditions of 200 μL of serum-supplemented medium (Alpha modification of Eagle's MEM (α-MEM) (Thermo Fisher Scientific)+10% FBS). Furthermore, it was also produced the test example that was cultured for 21 days with the whole amount of Example 2-supplemented medium replaced every 7 days. As a control, the cells were cultured in a serum-supplemented medium (α-MEM+10% FBS) without addition and were used. A supernatant was removed after the completion of the culture. The cells were washed once with PBS and stained in PBS to which a fluorescent dye for living cell staining Calcein-AM (DOJINDO LABORATORIES) (final concentration: 0.1 μg/mL) and a fluorescent dye for dead cell staining Propidium Iodide (PI) (DOJINDO LABORATORIES) (final concentration: 0.3 μg/mL) were added, at 37° C. in a 5% CO2 cell incubator for 30 minutes. The living cells and dead cells were separately stained with Calcein-AM and PI, respectively and imaged with the confocal laser scanning microscope LSM800. Next, the dead cell rate relative to the number of total cells was analyzed using ImageJ.
(§3) The results are represented by the average value of the dead cell rate (the number red cells stained with IP/the number of total cells×100(%))±standard deviation (SD). In FIG. 2A, the vertical axis represents the rate of cell death when each cell was cultured with Example 2 (50 μg/mL) for 9 days and the horizontal axis represents various types of cells. The increase in the dead cell rate of the Gin-1 cells was not observed.

[2] = test system: HL-60 cells; assay: as above; type: cell-based, human; conditions: 50 μg/mL, 9 days
From the text: as §1, §2, §3

[3] = test system: Hos cells; assay: as above; type: cell-based, human; conditions: 50 μg/mL, 9 days
From the text: as §1, §2, §3

[4] = test system: THP-1 cells; assay: as above; type: cell-based, human; conditions: 50 μg/mL, 9 days
From the text: as §1, §2, §3

[5] = test system: U937 cells; assay: as above; type: cell-based, human; conditions: 50 μg/mL, 9 days
From the text: as §1, §2, §3

[6] = target: T1, CD13 on Gin-1 cells (Homo sapiens, UniProt P15144); assay: Binding test to cell membrane (confocal, CD13 co-staining); type: cell-based; conditions: 1 μg/100 μL, 4° C., 1 hour
T1 construct: endogenous in cells; host or cells: Gin-1 cells
Procedure: (§4) A PE-labeled human CD13 antibody (Clone: WM-15 Biolegend) ([…]) and Example 2 (1 μg/100 μL) were added to each of the cells (500,000 cells/[…]), and the cells were stained at 4° C. for 1 hour. After the cells were washed with PBS, CD13 expression of each cell and binding site of Example 2 were observed as the standard of the fluorescence intensity of the HT-1080 cells using the confocal laser scanning microscope LSM800. The expression of CD13 (red) was strongest and the luminescence of Example 2 (green) was also strong in the HT-1080 and Gin-1 cells. […] Further, the same phenomenon about CD13 expression was also recognized in the U937, HL-60, THP-1 and Hos cells (not shown).

[7] = target: T2, CD13 on HT-1080 cells (Homo sapiens, UniProt P15144); assay: as above; type: cell-based; conditions: 1 μg/100 μL, 4° C., 1 hour
T2 construct: endogenous in cells; host or cells: HT-1080 cells
Procedure: as §4

[8] = test system: cytoplasm and nuclear protein of HT-1080 cells; assay: Analytical test of cytoplasm and nuclear protein bound by Example 2 (immunoprecipitation, shotgun analysis); type: binding, human; conditions: 50 μg/mL, 5 days
Procedure: The HT-1080 cells (20 million cells) were cultured in 4 mL of serum-supplemented medium (α-MEM+10% FBS) to be 50 μg/mL at the final concentration of Example 2 for 5 days at 37° C. and 5% CO2 in the cell incubator. The cells were washed with PBS and collected. The protein was individually harvested from the cytoplasm and the nucleus using NE-PER Nuclear and Cytoplasmic Extraction Reagents (PIERCE). 80 μL of A/G agarose was added to 1 mg of each protein from the cytoplasm and the nucleus and stirred at 4° C. for 1 hour, the samples were pretreated. 10 μg of IgG Fraction Monoclonal Mouse Anti-Fluorescein (FITC) (Jackson ImmunoResearch) was added to the pretreated solution (1 mg/600 μL) and shaken at 4° C. overnight. Subsequently, 20 μL of A/G agarose was added to the mixtures and shaken at 4° C. for 2 hours. After the mixtures were washed three times with a wash buffer, 50 μL of elution buffer (Thermo Fisher Scientific) was added to the A/G agarose. […]
Proteins were identified from the cytoplasm or nucleus and listed with the accession number, protein name, identified number of detected peptides, identified number of unique peptides, confidence score and amount of cytoplasmic protein or nuclear protein(fmol), except for the antibodies used in immunoprecipitation and Example 2 from the detected proteins.

T2 sequence (P15144 whole entry): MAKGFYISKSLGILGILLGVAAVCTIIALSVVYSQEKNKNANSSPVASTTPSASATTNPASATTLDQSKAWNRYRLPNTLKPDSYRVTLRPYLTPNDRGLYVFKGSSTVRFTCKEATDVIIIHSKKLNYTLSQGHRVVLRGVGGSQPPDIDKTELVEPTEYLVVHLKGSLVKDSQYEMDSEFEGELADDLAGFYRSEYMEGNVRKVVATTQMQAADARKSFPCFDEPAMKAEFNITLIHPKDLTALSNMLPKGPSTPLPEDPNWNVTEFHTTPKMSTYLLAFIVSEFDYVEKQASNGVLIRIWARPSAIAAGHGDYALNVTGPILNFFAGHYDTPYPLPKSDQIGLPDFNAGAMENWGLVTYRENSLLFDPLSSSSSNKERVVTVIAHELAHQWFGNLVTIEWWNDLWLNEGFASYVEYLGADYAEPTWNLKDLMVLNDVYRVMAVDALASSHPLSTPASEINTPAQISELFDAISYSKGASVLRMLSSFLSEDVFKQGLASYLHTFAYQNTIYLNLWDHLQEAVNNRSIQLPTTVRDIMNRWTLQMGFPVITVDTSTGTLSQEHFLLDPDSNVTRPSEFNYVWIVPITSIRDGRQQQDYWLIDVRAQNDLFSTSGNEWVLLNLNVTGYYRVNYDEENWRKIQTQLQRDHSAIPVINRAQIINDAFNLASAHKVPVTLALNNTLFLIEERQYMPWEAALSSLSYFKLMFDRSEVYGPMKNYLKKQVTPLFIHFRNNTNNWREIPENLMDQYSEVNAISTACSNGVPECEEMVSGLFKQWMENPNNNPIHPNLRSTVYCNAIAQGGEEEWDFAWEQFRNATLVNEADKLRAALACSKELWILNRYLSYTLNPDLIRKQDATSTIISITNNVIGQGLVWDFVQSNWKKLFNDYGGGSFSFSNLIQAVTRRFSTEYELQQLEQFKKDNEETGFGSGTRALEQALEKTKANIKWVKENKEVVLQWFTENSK
T1 sequence (P15144 whole entry): as above

Substance: Example 2: peptide of SEQ ID NO: 1 labeled with FITC, bound via an Ahx linker at the N-terminus ({FITC}-[Ahx]KDNRGNLLQCVCTGNGRGEWKC; cysteine pairing not given here)
- increase in the dead cell rate vs control [1]: not observed
- increase in the dead cell rate vs control [2]: significant difference at the level of 1%
- increase in the dead cell rate vs control [3]: significant difference at the level of 1%
- increase in the dead cell rate vs control [4]: significant difference at the level of 5%
- increase in the dead cell rate vs control [5]: significant difference at the level of 1%
- colocalization with CD13 (overlay images) [6]: colocalized
- luminescence of the peptide (green) on cells [6]: strong
- colocalization with CD13 (overlay images) [7]: colocalized
- luminescence of the peptide (green) on cells [7]: strong
- nuclear transfer proved biochemically [8]: transfer to the inside of the nucleus
- proteins bound (identified from cytoplasm or nucleus) [8]: linker histones H1-3, core histones (H2A, H2B, H3-2 and H4), 22 types of 40S ribosomal proteins and 28 types of 60S ribosomal proteins
